Experiments:
[1] = Human liver microsome stability; type: in vitro ADME; settings: human, pooled human liver microsomes, pH 7.4, pooled human liver microsomes 0.5 mg/mL, 1 μM compound, NADPH 1 mM, pH 7.4, 37° C., 0-60 min; read-out: HLM Metabolism t1/2
Procedure: Pooled human liver microsomes (0.5 mg/mL) was pre-incubated with 1 μM test compounds or control compounds (verapamil, warfarin and cerivastatin) in 0.1 M phosphate buffer pH 7.4 containing 1 mM MgCl2 at 37° C. The final concentration of DMSO and acetonitrile are 0.05% and 0.2%, respectively. All incubations are performed singularly for each compound. NADPH was added to initiate the reaction with the final concentration of 1 mM and the final incubation volume of 400 μL.
At 6 time points (0, 5, 10, 20, 40 and 60 min) reactions were stopped by the removal of 50 μL of the incubation mixture into plates containing acetonitrile at a of 1:3 (v:v). The plates were centrifuged at 3000 rpm for 10 min at 4° C. to precipitate the protein. Following protein precipitation, the sample supernatants were combined in cassettes of up to 8 compounds. The internal standard was added (1:1 supernatant to internal standard solution) and samples were analyzed using standard LC-MS conditions.
From a plot of ln peak area ratio (compound peak area/internal standard peak area) against time, the gradient of the line is determined. Subsequently, half-life is calculated using the equations below: […]

[2] = tested on: HBV; experiment: Anti-HBV activity in HepG2.117 cell line (intracellular HBV DNA, real-time PCR); type: cell-based, hepatitis B virus; settings: HepG2.117 cells, HBV replication induced, 3 days of treatment, intracellular HBV DNA by real-time PCR
Procedure: The anti HBV activity was measured using the HepG2.117 cell line, a stable, inducibly HBV producing cell line, which replicates HBV in the absence of doxycycline (Tet-off system). The HepG2 cell line is available from ATCCR under number HB-8065. Transfection of the HepG2 cell line can be as described in Sun and Nassal 2006 Journal of Hepatology 45 (2006) 636-645 “Stable HepG2-and Huh7-based human hepatoma cell lines for efficient regulated expression of infectious hepatitis B virus”.
For the antiviral assay, HBV replication was induced, followed by a treatment with serially diluted compound in 96-well plates. After 3 days of treatment, the antiviral activity was determined by quantification of intracellular HBV DNA using real-time PCR and an HBV specific primer set and probe.

[3] = Cytotoxicity, ATPlite Luminescence Assay; type: cell-based, human; settings: human, HepG2 or HepG2.117 cells, 3-days incubation unless marked with *, ATPlite viability
Procedure: Cytotoxicity of the compounds was tested using HepG2 or HepG2.117 cells, incubated for 3 or 4 days in the presence of compounds. The viability of the cells was assessed using the PERKIN ELMER ATPlite Luminescence Assay System.”

[4] = Hepatitis B virus, HepG2.117, 72 h

Structure (SMILES)	half-life at 1 μM [1] [min]	EC50 [2, 4] [µM]	CC50 [3] [µM]	EC50 [2] [µM]
CNC(=O)[C@@H]1CN(C(C)c2nc(C(F)(F)F)cs2)C(=O)c2c3c(nn21)C[C@@H](C)N(C(=O)c1ccc(Cl)c(Cl)c1)C3 (single isomer, unassigned) [Compound 44A, (3R,7S)-2-(3,4-Dichlorobenzoyl)-N,3-dimethyl-10-oxo-9-((R*)-1-(4-(trifluoromethyl)thiazol-2-yl)ethyl)-1,2,3,4,7,8,9,10-octahydropyrido[4′,3′:3,4]pyrazolo[1,5-a]pyrazine-7-carboxamide]	> 180	0.12	> 50	–
CCC(c1ccc(S(C)(=O)=O)cc1)N1C[C@@H](C(=O)NC)n2nc3c(c2C1=O)CN(C(=O)c1ccc(Cl)c(Cl)c1)[C@H](C)C3 (single isomer, unassigned) [Compound 22A, (3R,7S)-2-(3,4-Dichlorobenzoyl)-N,3-dimethyl-9-((R*)-1-(4-(methylsulfonyl)phenyl)propyl)-10-oxo-1,2,3,4,7,8,9,10-octahydropyrido[4′,3′:3,4]pyrazolo[1,5-a]pyrazine-7-carboxamide]	> 180	–	> 50	0.27
CNC(=O)[C@@H]1CN(C(C)c2ccc(-n3ncnc3C)cn2)C(=O)c2c3c(nn21)C[C@@H](C)N(C(=O)c1ccc(Cl)c(Cl)c1)C3 (single isomer, unassigned) [Compound 41A, (3R,7S)-2-(3,4-Dichlorobenzoyl)-N,3-dimethyl-9-((R*)-1-(5-(5-methyl-1H-1,2,4-triazol-1-yl)pyridin-2-yl)ethyl)-10-oxo-1,2,3,4,7,8,9,10-octahydropyrido[4′,3′:3,4] pyrazolo[1,5-a]pyrazine-7-carboxamide]	> 180	–	> 50	2.21
CNC(=O)[C@@H]1CN(C(C)c2ccc(S(C)(=O)=O)cc2)C(=O)c2c3c(nn21)C[C@@H](C)N(C(=O)c1ccc(Cl)c(C(F)(F)F)c1)C3 (single isomer, unassigned) [Compound 19A, (3R,7S)-2-(4-Chloro-3-(trifluoromethyl)benzoyl)-N,3-dimethyl-9-((R*)-1-(4-(methylsulfonyl)phenyl)ethyl)-10-oxo-1,2,3,4,7,8,9,10-octahydropyrido[4′,3′:3,4]pyrazolo[1,5-a]pyrazine-7-carboxamide]	> 180	–	> 50	0.12
CNC(=O)[C@@H]1CN([C@H](C)c2ccc(C(F)(F)F)nc2)C(=O)c2c3c(nn21)C[C@@H](C)N(C(=O)c1ccc(Cl)c(C(F)(F)F)c1)C3 [Compound 15A, (3R,7S)-2-(4-Chloro-3-(trifluoromethyl)benzoyl)-N,3-dimethyl-10-oxo-9-((R)-1-(6-(trifluoromethyl)pyridin-3-yl)ethyl)-1,2,3,4,7,8,9,10-octahydropyrido[4′,3′:3,4]pyrazolo[1,5-a]pyrazine-7-carboxamide]	> 180	0.086	> 50	–
C[C@@H]1Cc2nn3c(c2CN1C(=O)c1ccc(Cl)c(Cl)c1)C(=O)N([C@H](C)c1ccc(OC(F)F)cc1)CC3 [Ref 1, reference compound]	15.4	0.069	> 50	–
CC(c1ccc(OC(F)F)nc1)N1C[C@@H](C(N)=O)n2nc3c(c2C1=O)CN(C(=O)c1ccc(Cl)c(Cl)c1)[C@H](C)C3 (single isomer, unassigned) [Compound 12A, (3R,7S)-2-(3,4-Dichlorobenzoyl)-9-((R*)-1-(6-(difluoromethoxy)pyridin-3-yl)ethyl)-3-methyl-10-oxo-1,2,3,4,7,8,9,10-octahydropyrido[4′,3′:3,4]pyrazolo[1,5-a]pyrazine-7-carboxamide]	> 180	–	24.4	0.059
C[C@@H]1Cc2nn3c(c2CN1C(=O)c1ccc(Cl)c(C#N)c1)C(=O)N([C@H](C)c1ccc(OC(F)F)cc1)C[C@H]3C(=O)N(C)C [Compound 27A, (3R,7S)-2-(4-Chloro-3-cyanobenzoyl)-9-((R)-1-(4-(difluoromethoxy)phenyl)ethyl)-N,N,3-trimethyl-10-oxo-1,2,3,4,7,8,9,10-octahydropyrido[4′,3′:3,4]pyrazolo[1,5-a]pyrazine-7-carboxamide]	> 180	0.031	> 50	–
CNC(=O)[C@@H]1CN([C@@H](C)c2cnc(C(F)(F)F)nc2)C(=O)c2c3c(nn21)C[C@@H](C)N(C(=O)c1ccc(Cl)c(Cl)c1)C3 [Compound 4B, (3R,7S)-2-(3,4-dichlorobenzoyl)-N,3-dimethyl-10-oxo-9-((S)-1-(2-(trifluoromethyl)pyrimidin-5-yl)ethyl)-1,2,3,4,7,8,9,10-octahydropyrido[4′,3′:3,4]pyrazolo[1,5-a]pyrazine-7-carboxamide]	> 180	0.16	> 50	–
CNC(=O)[C@@H]1CN(C(C)c2ccccn2)C(=O)c2c3c(nn21)C[C@@H](C)N(C(=O)c1ccc(Cl)c(Cl)c1)C3 (single isomer, unassigned) [Compound 37A, (3R,7S)-2-(3,4-Dichlorobenzoyl)-N,3-dimethyl-10-oxo-9-((R*)-1-(pyridin-2-yl)ethyl)-1,2,3,4,7,8,9,10-octahydropyrido[4′,3′:3,4]pyrazolo[1,5-a]pyrazine-7-carboxamide]	> 180	0.089	> 50	–
CNC(=O)[C@@H]1CN([C@@H](C)c2ccc(OC(F)F)cc2)C(=O)c2c3c(nn21)C[C@@H](C)N(C(=O)c1ccc(Cl)c(C(F)(F)F)n1)C3 [Compound 45, (3R,7S)-2-(5-Chloro-6-(trifluoromethyl)picolinoyl)-9-((S)-1-(4-(difluoromethoxy)phenyl)ethyl)-N,3-dimethyl-10-oxo-1,2,3,4,7,8,9,10-octahydropyrido[4′,3′:3,4]pyrazolo[1,5-a]pyrazine-7-carboxamide]	> 180	0.067	49.8	–
CNC(=O)[C@@H]1CN([C@@H](C)c2ccc(C(F)(F)F)nc2)C(=O)c2c3c(nn21)C[C@@H](C)N(C(=O)c1ccc(Cl)c(Cl)c1)C3 [Compound 13B, (3R,7S)-2-(3,4-dichlorobenzoyl)-N,3-dimethyl-10-oxo-9-((S)-1-(6-(trifluoromethyl)pyridin-3-yl)ethyl)-1,2,3,4,7,8,9,10-octahydropyrido[4′,3′:3,4]pyrazolo[1,5-a]pyrazine-7-carboxamide]	> 180	0.033	46.8	–
CNC(=O)[C@@H]1CN(C(C)c2ccc(C(F)F)nc2)C(=O)c2c3c(nn21)C[C@@H](C)N(C(=O)c1ccc(Cl)c(Cl)c1)C3 (single isomer, unassigned) [Compound 36A, (3R,7S)-2-(3,4-Dichlorobenzoyl)-9-((R*)-1-(6-(difluoromethyl)pyridin-3-yl)ethyl)-N,3-dimethyl-10-oxo-1,2,3,4,7,8,9,10-octahydropyrido[4′,3′:3,4]pyrazolo[1,5-a]pyrazine-7-carboxamide]	> 180	0.086	> 50	–
CNC(=O)[C@@H]1CN(C(C)c2ccc(-c3c(C)noc3C)nc2)C(=O)c2c3c(nn21)C[C@@H](C)N(C(=O)c1ccc(Cl)c(Cl)c1)C3 (single isomer, unassigned) [Compound 35A, (3R,7S)-2-(3,4-Dichlorobenzoyl)-9-((R*)-1-(6-(3,5-dimethylisoxazol-4-yl)pyridin-3-yl)ethyl)-N,3-dimethyl-10-oxo-1,2,3,4,7,8,9,10-octahydropyrido[4′,3′:3,4]pyrazolo[1,5-a]pyrazine-7-carboxamide]	69.5	–	> 50	0.39
CC(c1ccccn1)N1CCn2nc3c(c2C1=O)CN(C(=O)c1ccc(Cl)c(Cl)c1)[C@H](C)C3 (mixture of isomers) [Ref 3, reference compound]	6.6	0.072	–	–
C[C@@H]1Cc2nn3c(c2CN1C(=O)c1ccc(Cl)c(Cl)c1)C(=O)N([C@@H](C)c1ccc(C#N)cc1)CC3 [Ref 5, reference compound]	7.9	0.022	–	–
C[C@@H]1Cc2nn3c(c2CN1C(=O)c1ccc(Cl)c(Cl)c1)C(=O)N([C@H](C)c1ccc(C#N)cc1)CC3 [Ref 4, reference compound]	13.5	0.076	–	–
